According to patent US20240252688A1, “COMPOSITIONS AND METHODS FOR ENHANCED PROTEIN PRODUCTION” (HDT Bio Corp., priority 2021, published 2024):
Where a name gives a salt, the structure may show the parent alone.

Tests used:
IFIT2 = assay: Single-point screen: IFIT2 activation (Lucia luciferase, QUANTI-Luc); type: cell-based, human; details: A549-Dual cells, compound 50 μM pre-treatment, NP-1+mRNA 20 ng/well + IFN; for fold induction at 50 µM: Homo sapiens, 24 h, read-out: fold IFIT over IFN
Text: (§1) The cells produce secreted embryonic alkaline phosphatase (SEAP), under the control of the interferon beta […] minimal promoter fused to five NF-κB binding sites. The cells also secrete lucia luciferase under the control of IFIT2 promoter.

A549-Dual cells [1] = assay: Single-point kinase inhibitor library screen: nLuc expression from NP-1+mRNA-nLuc in IFN-treated cells; type: cell-based, human; details: compound 50 μM pre-treatment, NP-1+mRNA 20 ng/well + IFN; for fold induction at 50 µM: Homo sapiens, read-out: fold nLuc over RNA + IFN
Method: as §1
To measure protein expression from mRNA, which is the primary readout for compound down selection, mRNA encoding a secreted version of nanoluciferase (mRNA-nLuc) was used. Protein expression was measured via a luminometer using standard techniques.
As additional criterion, expression in compound treated cells was compared relative to mRNA-transfected cells without IFN (“RNA only”) (data not shown).
A library of small molecule kinase inhibitors was screened for the ability to enhance expression of mRNA-encoded genes when co-delivered with mRNA.

NF-κB = assay: Single-point screen: NFκB activation (SEAP reporter); type: cell-based, human; details: A549-Dual cells, compound 50 μM pre-treatment, NP-1+mRNA 20 ng/well + IFN; for fold induction at 50 µM: Homo sapiens, 24 h, read-out: fold NFkB over IFN
Text: as §1

A549-Dual cells [2] = assay: Single-point screen: cell viability by CellTiter-Glo; details: A549-Dual cells incubated overnight with compound at 50 μM, then NP-1+mRNA 20 ng/well + IFN 1:50
Method: Finally, cell lysates were assayed with the CellTiter-GLO® assay (Promega) to obtain a luminescent-based measure of cell viability. In summary, the readouts from the high throughput screen included the primary measure of nLuc protein expression and three secondary readouts: IFIT, NF-κB and cell viability.
For each assay, A549-dual cells were plated at a seeding density of about 5×10^4 cells per well. Cells were incubated overnight with compounds at 50 microMolar (μM) in 1% v/v dimethyl sulfoxide (DMSO). For control wells, 1% DMSO was added to each well. After about 24 hours, the culture medium was removed, and cells were transfected with NP-1+mRNA at 20 ng/mRNA/well in Opti-MEM® media (Thermofisher). Interferon (IFN) was diluted to 1:50 in all test wells except for the RNA only wells and media only wells. Anti-IFN was diluted 1:1000 in “RNA+anti-IFN+IFN” wells. Cells were incubated for 4 hours, and culture medium was added to the Opti-MEM® medium. After 24 hours, assay supernatants were collected and analyzed for nLuc expression, IFIT2 (qLuc), and NFκB (qBLUE-SEAP™, InvivoGen) activation. Cells were then lysed, and cell viability was determined by CellTiter-Glo® (Promega) assay.

For `Cc1cnc(-c2cnc(NCCNc3ccc(C#N)cn3)nc2-c2ccc(Cl)cc2Cl)[nH]1` [CHIR-99021 (monohydrochloride), 6-[2-[[4-(2,4-dichlorophenyl)-5-(5-methyl-1H-imidazol-2-yl)pyrimidin-2-yl]amino]ethylamino]pyridine-3-carbonitrile], the fold induction at 50 µM (IFIT2) was 0.35, the fold induction at 50 µM (A549-Dual cells [1]) was 116 and the fold induction at 50 µM (NF-κB) was 0.71.
For `Cc1ncc(-c2ccnc(Nc3ccc(S(C)(=O)=O)cc3)n2)n1C(C)C` [AZD-5438, 4-(1-isopropyl-2-methyl-1H-imidazol-5-yl)-N-(4-(methylsulfonyl)phenyl)pyrimidin-2-amine], the “% viability” value (A549-Dual cells [2]) was 46%, the fold induction at 50 µM (IFIT2) was 2.39 and the fold induction at 50 µM (A549-Dual cells [1]) was 353. For the same compound, the fold induction at 50 µM (NF-κB) was 0.38.
For `Cc1cc(Nc2cc(Cl)nc(Oc3ccc([N+](=O)[O-])cc3)n2)n[nH]1` [Autophinib, 6-chloro-NV-(5-methyl-1H-pyrazol-3-yl)-2-(4-nitrophenoxy)pyrindin-4-amine], the “% viability” value (A549-Dual cells [2]) was 49%, the “fold IFIT over IFN” value (IFIT2) was 1.09 fold and the “fold nLuc over RNA + IFN” value (A549-Dual cells [1]) was 128.89 fold. For the same compound, the “fold NFkB over IFN” value (NF-κB) was 0.78 fold.
In the case of `CN(c1ccc(NC(=O)Nc2ccc(OC(F)(F)F)cc2)cc1)c1ccnc(Nc2cccc(S(N)(=O)=O)c2)n1` [GW806742X (hydrochloride), 1-[4-[methyl-[2-(3-sulfamoylanilino)pyrimidin-4-yl]amino]phenyl]-3-[4-(trifluoromethoxy)phenyl]urea], the “% viability” value (A549-Dual cells [2]) is reported as 41%, the fold induction at 50 µM (IFIT2) is reported as 3.93 and the fold induction at 50 µM (A549-Dual cells [1]) is reported as 842. For the same compound, the fold induction at 50 µM (NF-κB) was 0.91.
For `CC[C@H](CO)Nc1nc(NCc2ccccc2)c2ncn(C(C)C)c2n1` [Seliciclib, (2R)-2-[[6-(benzylamino)-9-propan-2-ylpurin-2-yl]amino]butan-1-ol], the “% viability” value (A549-Dual cells [2]) was 45%, the fold induction at 50 µM (IFIT2) was 1.32 and the fold induction at 50 µM (A549-Dual cells [1]) was 118. For the same compound, the fold induction at 50 µM (NF-κB) was 0.55.
With `Cc1nc2c(NCc3cccc(S(C)(=O)=O)c3)nccn2c1-c1ccc(O)c(F)c1` [BF738735, 2-fluoro-4-[2-methyl-8-[(3-methylsulfonylphenyl)methylamino]imidazo[1,2-a]pyrazin-3-yl]phenol] the “% viability” value (A549-Dual cells [2]) was 93%, the fold induction at 50 µM (IFIT2) was 0.37 and the fold induction at 50 µM (A549-Dual cells [1]) was 239. The fold induction at 50 µM (NF-κB) was 0.62.
In the case of `Cc1[nH]ncc1-c1cc2nc([C@H]3CC4CCN3CC4)[nH]c(=O)c2s1` [(R)-Simurosertib], the “% viability” value (A549-Dual cells [2]) is reported as 86%, the “fold IFIT over IFN” value (IFIT2) is reported as 1.84 fold and the “fold nLuc over RNA + IFN” value (A549-Dual cells [1]) is reported as 200.44 fold. For the same compound, the “fold NFkB over IFN” value (NF-κB) was 1.33 fold.
In the case of `COc1ccc(-c2c[nH]c3nccc(-c4ccsc4)c23)c(OC)c1` [ARN-3236, 3-(2,4-dimethoxyphenyl)-4-thiophen-3-yl-1-pyrrolo[2,3-b]pyridine], the “% viability” value (A549-Dual cells [2]) is reported as 33%, the “fold IFIT over IFN” value (IFIT2) is reported as 1.61 fold and the “fold nLuc over RNA + IFN” value (A549-Dual cells [1]) is reported as 322.60 fold. The “fold NFkB over IFN” value (NF-κB) was 0.41 fold.
With `COCCOc1ccc(-c2cn(-c3ccccc3)c3nc[nH]c(=O)c23)cc1` [DMX-5804, 5-[4-(2-methoxyethoxy)phenyl]-7-phenyl-3H-pyrrolo[2,3-d]pyrimidin-4-one] the “% viability” value (A549-Dual cells [2]) was 92%, the fold induction at 50 µM (IFIT2) was 0.4 and the fold induction at 50 µM (A549-Dual cells [1]) was 267. The fold induction at 50 µM (NF-κB) was 1.35.
`CN1CC[C@@H](c2c(O)cc(O)c3c(=O)cc(-c4ccc(C(F)(F)F)cc4Cl)oc23)[C@@H]1CO` [Voruciclib (hydrochloride), 2-[2-chloro-4-(trifluoromethyl)phenyl]-5,7-dihydroxy-8-[(2R,3S)-2-(hydroxymethyl)-1-methylpyrrolidin-3-yl]chromen-4-one] was tested, and the fold induction at 50 µM (IFIT2) was 0.8, the fold induction at 50 µM (A549-Dual cells [1]) was 274 and the fold induction at 50 µM (NF-κB) was 0.63.
For `Cl.O=C(NC1CCNCC1)c1n[nH]cc1NC(=O)c1c(Cl)cccc1Cl` [AT7519 (Hydrochloride), 4-[(2,6-dichlorobenzoyl)amino]-N-piperidin-4-yl-1H-pyrazole-5-carboxamide; hydrochloride], the “% viability” value (A549-Dual cells [2]) was 42%, the fold induction at 50 µM (IFIT2) was 0.88 and the fold induction at 50 µM (A549-Dual cells [1]) was 123. For the same compound, the fold induction at 50 µM (NF-κB) was 0.43.
In the case of `Cc1cc(O)c(-c2ccc([C@@H](C)CN)cc2)c2c1[nH]c(=O)c1sccc12` [OTS514, 9-[4-[(2R)-1-aminopropan-2-yl]phenyl]-8-hydroxy-6-methyl-5H-thieno[2,3-c]quinolin-4-one], the “% viability” value (A549-Dual cells [2]) is reported as 66%, the fold induction at 50 µM (IFIT2) is reported as 0.4 and the fold induction at 50 µM (A549-Dual cells [1]) is reported as 349. It also gave a fold induction at 50 µM (NF-κB) of 0.35.
With `Cn1nccc1Nc1nccc(-c2ccn([C@H](CO)c3ccc(Cl)c(F)c3)c(=O)c2)n1` [Ravoxertinib hydrochloride, 1-[(1S)-1-(4-chloro-3-fluorophenyl)-2-hydroxyethyl]-4-[2-[(2-methylpyrazol-3-yl)amino]pyrimidin-4-yl]pyridin-2-one] the “% viability” value (A549-Dual cells [2]) was 96%, the fold induction at 50 µM (IFIT2) was 0.24 and the fold induction at 50 µM (A549-Dual cells [1]) was 162. It also gave a fold induction at 50 µM (NF-κB) of 1.17.
With `Cc1cc(F)c(C(=O)Nc2cccc(-c3nncn3C(C)C)n2)cc1-n1cnc(C2CC2)c1` [Selonsertib, 5-(4-cycloproplirnidazol-1-yl)-2-fluoro-4-methyl-N-[6-(4-propan-2-yl-1,2,4-triazol-3-yl)pyridin-2-yl]benzamide] the fold induction at 50 µM (IFIT2) was 1.43, the fold induction at 50 µM (A549-Dual cells [1]) was 112 and the fold induction at 50 µM (NF-κB) was 0.9.
In the case of `C[C@@H](Oc1ccc2[nH]nc(/C=C/c3cnn(CCO)c3)c2c1)c1c(Cl)cncc1Cl` [LY2874455, 2-[4-[(E)-2-[5-[(1R)-1-(3,5-dichloropyridin-4-yl)ethoxy]-1H-indazol-3-yl]ethenyl]pyrazol-1-yl]ethanol], the “% viability” value (A549-Dual cells [2]) is reported as 58%, the fold induction at 50 µM (IFIT2) is reported as 0.09 and the fold induction at 50 µM (A549-Dual cells [1]) is reported as 150. It also gave a fold induction at 50 µM (NF-κB) of 0.3.
With `Oc1cccc(Nc2ncc(F)c(Nc3cccc(O)c3)n2)c1` [Compound R112, 3-[[5-fluoro-2-(3-hydroxyanilino)pyrimidin-4-yl]amino]phenol] the “% viability” value (A549-Dual cells [2]) was 76%, the fold induction at 50 µM (IFIT2) was 1.33 and the fold induction at 50 µM (A549-Dual cells [1]) was 521. It also gave a fold induction at 50 µM (NF-κB) of 1.16.
Compound `CN1CC[C@H](c2c(O)cc(O)c3c(=O)cc(-c4ccc(C(F)(F)F)cc4Cl)oc23)[C@H]1CO` [(2S,3R)-Voruciclib (hydrochloride), 2-[2-chloro-4-(trifluoromethyl)phenyl]-5,7-dihydroxy-8-[(2S,3R)-2-(hydroxymethyl)-1-methylpyrrolidin-3-yl]chromen-4-one; hydrochloride] has a fold induction at 50 µM (IFIT2) of 1.09, a fold induction at 50 µM (A549-Dual cells [1]) of 113 and a fold induction at 50 µM (NF-κB) of 0.26.
With `C[C@@]1(O)CCC[C@H]1n1c(=O)c(C(F)F)cc2cnc(NC3CCN(S(C)(=O)=O)CC3)nc21` [PF-06873600, 6-(difluoromethyl)-8-[(1R,2R)-2-hydroxy-2-methylcyclopentyl]-2-[(1-methylsulfonylpiperidin-4-yl)amino]pyrido[2,3-d]pyrimidin-7-one] the “% viability” value (A549-Dual cells [2]) was 55%, the fold induction at 50 µM (IFIT2) was 1.08 and the fold induction at 50 µM (A549-Dual cells [1]) was 120. For the same compound, the fold induction at 50 µM (NF-κB) was 0.83.
For `O=C1NCCSc2c1sc1ccc(O)cc21` [kb NB 142-70, 9-hydroxy-3,4-dihydro-2H-[1]benzothiolo[2,3-f][1,4]thiazepin-5-one], the “% viability” value (A549-Dual cells [2]) was 52%, the fold induction at 50 µM (IFIT2) was 2.31 and the fold induction at 50 µM (A549-Dual cells [1]) was 187. It also gave a fold induction at 50 µM (NF-κB) of 0.61.
For `CCN1CCN(Cc2ccc(NC(=O)Nc3ccc(Oc4cc(NC)ncn4)cc3)cc2C(F)(F)F)CC1` [AST 487, 1-[4-[(4-ethylpiperazin-1-yl)methyl]-3-(trifluoromethyl)phenyl]-3-[4-[6-(methylamino)pyrimidin-4-yl]oxyphenyl]urea], the “% viability” value (A549-Dual cells [2]) was 32%, the fold induction at 50 µM (IFIT2) was 0.19 and the fold induction at 50 µM (A549-Dual cells [1]) was 183. The fold induction at 50 µM (NF-κB) was 0.14.
`O=C1Nc2ccccc2/C1=C/c1ccccn1` [GSK-3 inhibitor 1] was tested, and the “% viability” value (A549-Dual cells [2]) was 90%, the “fold IFIT over IFN” value (IFIT2) was 0.65 fold and the “fold nLuc over RNA + IFN” value (A549-Dual cells [1]) was 225.93 fold. For the same compound, the “fold NFkB over IFN” value (NF-κB) was 1.00 fold.
In the case of `COc1ccc(CCNCc2ccc(OCc3ccc(Cl)nc3)c(OC)c2)cc1OC` [SBE13 (Hydrochloride)], the “% viability” value (A549-Dual cells [2]) is reported as 105%, the “fold IFIT over IFN” value (IFIT2) is reported as 0.32 fold and the “fold nLuc over RNA + IFN” value (A549-Dual cells [1]) is reported as 179.07 fold. The “fold NFkB over IFN” value (NF-κB) was 0.73 fold.
For `C[C@H](Nc1cc(-c2cnn(C)c2)cc(Nc2cnccn2)n1)c1ccc(F)cc1` [Ilginatinib, 6-N-[(1S)-1-(4-fluorophenyl)ethyl]-4-(1-methylpyrazol-4-yl)-2-N-pyrazin-2-ylpyridine-2,6-diamine], the fold induction at 50 µM (IFIT2) was 1.89, the “fold nLuc over RNA + IFN” value (A549-Dual cells [1]) was 115.95 fold and the fold induction at 50 µM (NF-κB) was 1.12.
For `COc1cc(Nc2ncc3ccn(-c4cccc(CCC#N)c4)c3n2)cc(OC)c1OC` [Casein Kinase II Inhibitor IV, 3-[3-[2-(3,4,5-trimethoxyanilino)pyrrolo[2,3-d]pyrimidin-7-yl]phenyl]propanenitrile], the “% viability” value (A549-Dual cells [2]) was 18%, the fold induction at 50 µM (IFIT2) was 0.79 and the fold induction at 50 µM (A549-Dual cells [1]) was 126. The fold induction at 50 µM (NF-κB) was 0.46.
`C[C@H](Nc1cc(-c2cnn(C)c2)cc(Nc2cnccn2)n1)c1ccc(F)cc1.Cl` [Ilginatinib hydrochloride, 6-N-[(1S)-1-(4-fluorophenyl)ethyl]-4-(1-methylpyrazol-4-yl)-2-N-pyrazin-2-ylpyridine-2,6-diamine; hydrochloride] was tested, and the fold induction at 50 µM (IFIT2) was 3.17, the “fold nLuc over RNA + IFN” value (A549-Dual cells [1]) was 484.10 fold and the fold induction at 50 µM (NF-κB) was 1.39.
